Like-named read-outs stand apart in the source and are kept apart here.

Series [1] addresses T1, TMEM16A (Homo sapiens, UniProt Q5XXA6).
T1 construct: expressed in transfected cells; host or cells: HEK293T-derived, doxycycline-inducible
T1 sequence (Q5XXA6 1-986): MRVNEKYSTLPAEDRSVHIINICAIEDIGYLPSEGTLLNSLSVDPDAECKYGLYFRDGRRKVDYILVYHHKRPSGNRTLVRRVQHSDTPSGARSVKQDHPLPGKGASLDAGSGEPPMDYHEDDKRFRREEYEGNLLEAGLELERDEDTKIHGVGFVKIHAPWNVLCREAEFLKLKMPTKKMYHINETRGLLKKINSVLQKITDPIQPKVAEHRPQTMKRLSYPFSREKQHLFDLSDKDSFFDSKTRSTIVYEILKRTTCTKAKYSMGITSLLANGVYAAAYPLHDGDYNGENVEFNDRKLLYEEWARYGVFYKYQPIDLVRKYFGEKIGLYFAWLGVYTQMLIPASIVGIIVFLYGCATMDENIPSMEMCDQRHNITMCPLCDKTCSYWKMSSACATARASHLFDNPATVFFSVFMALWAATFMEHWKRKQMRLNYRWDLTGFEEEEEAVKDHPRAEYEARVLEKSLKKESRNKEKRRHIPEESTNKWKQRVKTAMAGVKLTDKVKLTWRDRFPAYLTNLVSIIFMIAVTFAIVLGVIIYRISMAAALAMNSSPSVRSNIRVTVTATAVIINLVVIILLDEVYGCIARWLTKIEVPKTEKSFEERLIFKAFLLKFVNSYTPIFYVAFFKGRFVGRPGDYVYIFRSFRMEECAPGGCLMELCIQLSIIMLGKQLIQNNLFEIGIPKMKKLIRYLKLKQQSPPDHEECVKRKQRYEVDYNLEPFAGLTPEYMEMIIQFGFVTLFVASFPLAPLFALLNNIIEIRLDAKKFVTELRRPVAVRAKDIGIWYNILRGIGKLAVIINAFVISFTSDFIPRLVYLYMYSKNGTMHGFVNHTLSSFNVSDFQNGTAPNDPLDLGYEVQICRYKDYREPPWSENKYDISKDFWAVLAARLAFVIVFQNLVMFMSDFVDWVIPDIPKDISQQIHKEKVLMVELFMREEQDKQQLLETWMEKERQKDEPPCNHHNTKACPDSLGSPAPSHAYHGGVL
The series is described as follows: fluorescence-based eYFP-quench assay. The format is cell-based. The settings on record: iodide based assay. An excerpt: This was possibly due to the eYFP assay being iodide based, since it has been reported that the anion passing through the pore has an effect on the open state of the channel.[12] It is also impossible to control the intracellular calcium level in this assay, which could explain the discrepancy in potency.[37] […] There is clearly a need for an automated electrophysiology assay for TMEM16A, whether looking at activators or inhibitors. TMEM16A has proven to be a difficult channel for electrophysiology, owing to its fast rundown, small currents, and the fact that it is a ligand-gated channel. In addition, fluoride, typically used in automated patch-clamp assays to improve seal quality, is known to decrease calcium salt solubility. Therefore, a fluoride-free internal solution is preferable when trying to control for a precise internal calcium concentration.

Series [2] concerns the target T2, human ANO1 channel (isoform acd) (Homo sapiens, UniProt Q5XXA6).
T2 construct: host or cells: HEK293T
T2 sequence (Q5XXA6 1-986): T1 sequence (Q5XXA6 1-986)
In words: QPatch-48 automated whole-cell electrophysiology, cumulative five-concentration single-addition protocol. Type of series: cell-based. The method, then: HEK293T cells stably expressing the human ANO1 channel (isoform acd) were obtained from Scottish Biomedical. Cells were cultured in Sigma Minimum Essential Media containing 10% heat-inactivated fetal bovine serum, 1% penicillin/streptomycin, 1% glutamine, and […] geneticin. Cells were maintained in a 37°C, 5% CO2 environment. Cells were passaged every 3 days after they had reached ∼70% confluency and were not allowed to reach a density greater than 1–2 × 10^5 cells/cm^2 during routine culture. When subculturing, cells were rinsed once with room temperature 1 × phosphate-buffered saline (PBS; Ca^2+/Mg^2+ free), lifted with TrypLE Express, resuspended in prewarmed growth media, and counted using a hemocytometer. Cells were then plated in T150 flasks at a density of 2.9 × 10^4 cells/cm^2 to be either used in the assay or subcultured 72 h later.
On the day of the experiment, cells plated at a density of 2.9 × 10^4 cells/cm^2 72 h prior should be ∼70%–80% confluent. After cells were rinsed with prewarmed 1 × PBS (Ca^2+/Mg^2+ free), 3 mL of room temperature Detachin solution (Genlantis) was added to the flask and tilted gently two to three times to cover all the cells. Approximately 2 mL of Detachin was aspirated from the flask, leaving 1 mL on the cells, and then placed in the 37°C incubator for 5 min. Once cells had rounded up, the cells were dislodged by tapping the flask gently. The cells were then resuspended in 5 mL of warm serum-free media (EX-CELL ACF CHO Medium; Sigma; supplemented with 4 mM L-glutamine and 10 mM HEPES). A glass Pasteur pipette with a rubber bulb was then used to gently dissociate the cells from one another. Detachin will often leave cells as doublets or clumps, conditions that will disrupt seal formation on the QPatch. The cells were triturated ∼30 times and then, still using the Pasteur pipette, transferred into the QPatch Cell Hotel. This ensures that cells detach from one another leaving a suspension of single cells. A QStirrer was added to the Cell Hotel and the cell suspension was immediately placed on the QPatch device. Cells were utilized within 15 min.
Compounds were reconstituted in dimethyl sulfoxide (DMSO; Sigma) as 10 mM stock solutions. An automated dilution machine set up the microtiter plate (MTP ) by making 1:5 dilutions from a starting concentration of 30 μM. The concentration of DMSO was equal for all concentrations tested. Each MTP contained one row of a negative control (DMSO) and a positive control (benzbromarone). A total of eight compounds were run at a time. All compounds tested were produced in-house.
Whole-cell patch-clamp experiments were performed on a QPatch-48-automated electrophysiology platform (Sophion Biosciences) using the 48-channel, single-hole QPlate (resistance 2.0 ± 0.4 MΩ). The external buffer (in mM) was 140 NaCl, 4 KCl, 2 CaCl2, 1 MgCl2, 10 HEPES, 10 glucose, pH 7.4 (osmolarity = 300), and the internal buffer (in mM) was 110 CsCl, 20 TEA-Cl, 5.374 CaCl2, 1.75 MgCl2, 10 EGTA, 10 HEPES, 4 Na2ATP, pH 7.2 (osmolarity = 310). Cell positioning was set to a 5-s wait time with a positioning pressure of −60 mbar and a positioning time-out of 60 s. Resistance was set to increase 750% to ensure the success of positioning. To obtain a seal, pressure was increased to −70 mbar with an allowed pressure of −130 to −20 mbar and a holding pressure of −20 mbar. The holding potential was set to −70 mV and a 240-s time-out was set. The minimum seal resistance was set to 0.02 GΩ. To go whole cell, five 1-s suction pulses were applied starting at −180 mbar and increasing with −40 mbar increments with a pulse period of 10 s. Suction ramp and voltage zap protocols were kept standard, according to the default HEK cell settings. […] The suction ramp order of use was set to 2 with a ramp amplitude of −450 mbar and a ramp slope of 100 ms/mbar.
Once established in whole-cell configuration, cells are clamped to a holding potential (Vhold) of 0 mV.

On the set-up of series [3]: method as in PMID 28493701. The settings on record: cited from earlier work.
Series [4] deals with T1, TMEM16A. Details: method as in PMID 24642630. The settings on record: read-out: reported IC50; cited from earlier work.
Where [5] appears, read: independent experiment 1, block at +100 mV, 250 nM internal free-calcium, read-out: IC50s for independent experiments 1.
[6] abbreviates: independent experiment 2, read-out: IC50s for independent experiments 2.
The mark [7] stands for this setting: independent experiment 3, read-out: IC50s for independent experiments 3.
Where [8] appears, read: independent experiment 4, read-out: IC50s for independent experiments 4.

For the molecule `N#Cc1c(C(F)(F)F)cc(O)n2c1nc1ccccc12` [1PBC], the “inhibition in eYFP-quench assay” value against TMEM16A [1] is on record as 40%. In addition, the IC50 in series [2] (setting [5]) is 1.18 µM; in series [2] (setting [6]), 0.85 µM; in series [2] (setting [7]), 1.1 µM; in series [2] (setting [8]), 1.57 µM. In series [2] (versus reported value, ref 36 (mouse TMEM16A)), the “potency relative to that reported” value is reported as approximately 10 times.

Turning to `COc1ccccc1/C=N/NC(=O)COc1ccc(Cl)cc1C` [Ani9], in series [3], the metabolic stability result is “metabolically unstable”.

Regarding `O=C(O)c1cccnc1Nc1cccc(C(F)(F)F)c1` [Niflumic acid], the IC50 in series [2] (full plate format (with rundown), n = 3, read-out: IC50, full plate) worked out at 3.89 ± 0.11 µM; in series [2] (setting [5]), 5.29 µM; in series [2] (setting [6]) it was 4.62 µM; in series [2] (setting [7]) it was 8.45 µM; in series [2] (setting [8]), 11.1 µM; in series [2] (independent experiment 5, read-out: IC50s for independent experiments 5) it was 7.71 µM. The IC50 at TMEM16A [4] was 12 µM. In addition, in series [2] (tail current deactivation), the “effect on deactivation rate” value is “slower deactivation rate”.

Turning to `CCc1c(C)nc(SCC(=O)Nc2nc(-c3ccc(OC)cc3)cs2)[nH]c1=O` [T16Ainh-A01], the block of current in series [2] (maximum block seen) was not above 40%.

(Values after PMC7268545, “Development of a QPatch-Automated Electrophysiology Assay for Identifying TMEM16A Small-Molecule Inhibitors” (Assay and Drug Development Technologies, 2020).)
